Laboratory results as given in article PMC6073568, “Efficient Lead Finding, Activity Enhancement and Preliminary Selectivity Control of Nuclear Receptor Ligands Bearing a Phenanthridinone Skeleton” (International Journal of Molecular Sciences, 2018).
Read-outs that look alike come from different tables or passages of the source.

Tests used:
LXRβ = target: T1, LXRβ (Homo sapiens, UniProt P55055); assay: LXRβ reporter gene assay in HEK293; format: cell-based; conditions: read-out: LXRβ antagonistic activity (IC50)
T1 construct: CMX-GAL4N-hLXRβ-LBD; expressed in transfected cells; host or cells: HEK293
T1 sequence (P55055 222-460 limits assumed): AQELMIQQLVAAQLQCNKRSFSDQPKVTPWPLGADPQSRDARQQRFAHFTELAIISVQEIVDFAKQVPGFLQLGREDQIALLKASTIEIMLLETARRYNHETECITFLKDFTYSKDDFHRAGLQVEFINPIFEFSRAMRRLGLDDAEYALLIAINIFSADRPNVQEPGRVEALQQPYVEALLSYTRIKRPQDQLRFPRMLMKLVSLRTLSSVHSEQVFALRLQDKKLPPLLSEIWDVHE

AR = target: T2, AR (Homo sapiens, UniProt P10275); assay: AR reporter gene assay in HEK293; format: cell-based; conditions: for IC50: reporter gene assay, HEK293
T2 sequence (P10275 1-920): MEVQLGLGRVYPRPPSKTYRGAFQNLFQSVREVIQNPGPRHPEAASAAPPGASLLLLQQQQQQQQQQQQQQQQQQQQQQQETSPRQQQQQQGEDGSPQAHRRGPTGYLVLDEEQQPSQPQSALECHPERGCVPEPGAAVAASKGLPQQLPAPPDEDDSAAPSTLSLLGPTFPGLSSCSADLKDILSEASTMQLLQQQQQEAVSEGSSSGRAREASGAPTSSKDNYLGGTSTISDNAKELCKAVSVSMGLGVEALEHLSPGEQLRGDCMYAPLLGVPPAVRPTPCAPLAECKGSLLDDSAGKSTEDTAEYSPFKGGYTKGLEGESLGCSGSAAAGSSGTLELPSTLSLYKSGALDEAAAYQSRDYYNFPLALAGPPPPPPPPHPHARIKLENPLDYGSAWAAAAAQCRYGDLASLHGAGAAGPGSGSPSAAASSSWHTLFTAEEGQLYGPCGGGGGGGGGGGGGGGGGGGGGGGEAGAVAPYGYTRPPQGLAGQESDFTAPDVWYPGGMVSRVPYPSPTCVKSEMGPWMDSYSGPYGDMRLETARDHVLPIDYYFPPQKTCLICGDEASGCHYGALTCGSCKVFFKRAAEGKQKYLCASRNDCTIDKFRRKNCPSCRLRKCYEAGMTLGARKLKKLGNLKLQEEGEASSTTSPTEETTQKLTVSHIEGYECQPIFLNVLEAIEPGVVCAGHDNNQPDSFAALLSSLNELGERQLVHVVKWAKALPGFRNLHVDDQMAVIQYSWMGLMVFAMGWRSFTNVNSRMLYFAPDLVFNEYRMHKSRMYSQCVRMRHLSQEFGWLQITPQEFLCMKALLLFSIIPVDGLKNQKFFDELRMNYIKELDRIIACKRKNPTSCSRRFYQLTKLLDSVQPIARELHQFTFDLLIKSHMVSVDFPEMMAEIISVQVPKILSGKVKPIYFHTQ

LXRα = target: T3, LXRα (Homo sapiens, UniProt Q13133); assay: LXRα reporter gene assay in HEK293; format: cell-based; conditions: read-out: LXRα antagonistic activity (IC50)
T3 construct: CMX-GAL4N-hLXRα-LBD; expressed in transfected cells; host or cells: HEK293
T3 sequence (Q13133 209-447 limits assumed): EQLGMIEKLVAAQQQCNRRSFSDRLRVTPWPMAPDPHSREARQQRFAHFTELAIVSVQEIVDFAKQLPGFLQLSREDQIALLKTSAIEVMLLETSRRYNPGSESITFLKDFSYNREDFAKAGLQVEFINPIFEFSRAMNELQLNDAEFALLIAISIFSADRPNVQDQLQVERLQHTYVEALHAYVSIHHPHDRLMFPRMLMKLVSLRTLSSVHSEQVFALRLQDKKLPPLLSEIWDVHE

GR = target: T4, GR (Homo sapiens, UniProt P04150); assay: GR reporter gene assay in HEK293; format: cell-based; conditions: reporter gene assay, HEK293; agonist dexamethasone 1 nM; read-out: GR antagonistic activity (IC50)
T4 construct: expressed in transfected cells; host or cells: HEK293
T4 sequence (P04150 1-777): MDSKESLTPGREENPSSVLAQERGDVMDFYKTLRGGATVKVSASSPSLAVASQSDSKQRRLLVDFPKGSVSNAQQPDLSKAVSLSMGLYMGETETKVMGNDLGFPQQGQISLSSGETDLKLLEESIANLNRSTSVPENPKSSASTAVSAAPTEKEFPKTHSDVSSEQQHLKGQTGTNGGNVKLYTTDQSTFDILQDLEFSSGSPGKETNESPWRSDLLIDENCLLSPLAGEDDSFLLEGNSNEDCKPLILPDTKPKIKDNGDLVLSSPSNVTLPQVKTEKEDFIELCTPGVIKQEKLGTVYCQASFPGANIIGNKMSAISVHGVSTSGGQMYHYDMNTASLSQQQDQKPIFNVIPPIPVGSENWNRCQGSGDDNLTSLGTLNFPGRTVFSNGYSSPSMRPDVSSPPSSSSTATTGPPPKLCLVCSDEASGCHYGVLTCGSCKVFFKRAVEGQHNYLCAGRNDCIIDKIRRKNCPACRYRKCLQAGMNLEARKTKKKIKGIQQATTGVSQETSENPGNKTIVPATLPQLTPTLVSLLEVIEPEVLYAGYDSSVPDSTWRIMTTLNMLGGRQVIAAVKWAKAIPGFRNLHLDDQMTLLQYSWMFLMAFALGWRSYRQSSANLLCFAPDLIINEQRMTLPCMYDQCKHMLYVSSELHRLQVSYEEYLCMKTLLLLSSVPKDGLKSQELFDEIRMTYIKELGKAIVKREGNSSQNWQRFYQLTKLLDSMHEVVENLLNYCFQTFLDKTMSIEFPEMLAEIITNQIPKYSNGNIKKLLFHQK

PR [1] = target: T5, PR (Homo sapiens, UniProt P06401); assay: T-47D alkaline phosphatase assay (PR antagonism); format: cell-based; conditions: compared with 7
T5 sequence (P06401 1-933): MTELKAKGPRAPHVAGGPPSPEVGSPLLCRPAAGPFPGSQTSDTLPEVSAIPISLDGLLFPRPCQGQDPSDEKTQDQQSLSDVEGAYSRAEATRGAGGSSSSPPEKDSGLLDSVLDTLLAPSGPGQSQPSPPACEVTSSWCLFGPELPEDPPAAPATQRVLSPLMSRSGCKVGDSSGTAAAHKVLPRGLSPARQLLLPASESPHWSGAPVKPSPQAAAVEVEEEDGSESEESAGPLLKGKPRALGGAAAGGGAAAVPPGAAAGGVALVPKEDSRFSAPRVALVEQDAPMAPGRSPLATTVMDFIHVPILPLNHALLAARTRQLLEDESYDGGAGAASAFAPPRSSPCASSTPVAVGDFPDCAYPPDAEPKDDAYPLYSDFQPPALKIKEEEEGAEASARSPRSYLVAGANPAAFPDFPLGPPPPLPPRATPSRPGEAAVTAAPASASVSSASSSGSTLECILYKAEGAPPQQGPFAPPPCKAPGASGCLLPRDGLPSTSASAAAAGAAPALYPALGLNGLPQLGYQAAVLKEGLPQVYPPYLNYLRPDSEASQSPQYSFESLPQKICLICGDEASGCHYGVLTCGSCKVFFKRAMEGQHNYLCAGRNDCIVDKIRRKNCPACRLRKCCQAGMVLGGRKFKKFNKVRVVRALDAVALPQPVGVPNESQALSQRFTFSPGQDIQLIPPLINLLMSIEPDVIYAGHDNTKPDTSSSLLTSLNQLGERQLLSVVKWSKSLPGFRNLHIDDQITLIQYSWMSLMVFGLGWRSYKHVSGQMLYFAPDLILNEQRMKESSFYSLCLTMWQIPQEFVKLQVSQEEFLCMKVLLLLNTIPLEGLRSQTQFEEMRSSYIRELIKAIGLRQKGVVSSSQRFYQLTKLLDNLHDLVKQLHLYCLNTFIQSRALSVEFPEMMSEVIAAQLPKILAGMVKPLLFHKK

PR [2] = target: T5, PR; conditions: alkaline phosphatase, T47D cells, progesterone 1 nM; read-out: PR antagonistic activity (IC50); cited from earlier work
[3] = agonist dihydrotestosterone 0.3 nM, read-out: AR antagonistic activity (IC50), AR reporter gene

Structure (SMILES)	IC50 (LXRβ)	selectivity for AR over LXRs (AR)	selectivity for AR over PR (AR)	selectivity for AR over RORs and GR (AR)	increase of AR activity (AR; compared with 7)	IC50 (AR; [3])	IC50 (AR; read-out: AR antagonistic activity IC50)	IC50 (LXRα)	IC50 (GR)	increase of PR activity (PR [1])	IC50 (PR [2])
CCCCn1c(=O)c2ccccc2c2cc(C(O)(C(F)(F)F)C(F)(F)F)ccc21 [Compound 12]	3.7 µM	~50 fold	about 7.8 fold	more than 200 fold	9 fold	1.8 µM	0.1 µM	8.4 µM	7.4 µM	6 fold	–
CCCCn1c(=O)c2ccc(C(F)(F)F)cc2c2cc(C(O)(C(F)(F)F)C(F)(F)F)ccc21 [Compound 37]	4.4 ± 0.8 µM	–	–	–	–	> 20 µM	–	7.1 µM	> 20 µM	–	4.2 µM
